Assay [1] relates to PC-12. In words: Cytoprotective activity against SNP-induced cell death in rat PC-12 cells assessed as increase in cell viability at 10 uM incubated for 1 hr followed by SNP stimulation and measured after 24 hrs by MTT assay. The following applies: time 25.0 hrs. It counts as functional. On the technique in general: Formazan colour is commonly taken as a measure of viable cells.

The test system of assay [2] is PC-12. In words: Cytoprotective activity against H2O2-induced cell death in rat PC-12 cells assessed as increase in cell viability at 10 uM incubated for 1 hr followed by H2O2 stimulation and measured after 5 hrs by MTT assay. It counts as functional. Conditions: time 6.0 hrs.
In assay [3] the test system is PC-12. The experiment in a line: Cytoprotective activity against H2O2-induced cell death in rat PC-12 cells assessed as increase in cell viability incubated for 1 hr followed by H2O2 stimulation and measured after 5 hrs by LDH assay. It counts as functional, cell-based. The following applies: time 6.0 hrs.
A short description of assay [4]: Metal chelating activity of the compound assessed as Fe2+-compound complex formation incubated for 10 mins in presence of ferrozine by UV-visible spectrophotometry.
The test system of assay [5] is PC-12. The experiment in a line: Cytoprotective activity against SNP-induced cell death in rat PC-12 cells assessed as increase in cell viability incubated for 1 hr followed by SNP stimulation and measured after 24 hrs by LDH assay. It counts as functional, cell-based. The following applies: time 25.0 hrs.

Activity calls are given as the source filed them. The rule behind the calls is not given here.

`Cc1ccc(-c2nc(-c3ccc(C)cc3O)n(-c3ccc(S(N)(=O)=O)cc3)n2)c(O)c1`: the outcome in the assay on PC-12 [1] and in the assay with PC-12 [2] was inactive.
As to `NS(=O)(=O)c1ccc(-n2nc(-c3ccc(Cl)cc3O)nc2-c2ccccc2O)cc1`, the Activity result in the assay on PC-12 [3] and in the assay on PC-12 [5] was “Dose-dependent effect” each time. Further, the concentration for half-maximal inhibition (IC50) (usually the point on the concentration scale where inhibition reaches its midpoint) in assay [4] (read-out: IC50) was found to be 36 µM. Moreover, the outcome in the assay on PC-12 [1] and in the assay on PC-12 [2] was Active.
Take `NS(=O)(=O)c1ccc(-n2nc(-c3ccc(F)cc3)nc2-c2ccccc2O)cc1`: the concentration for half-maximal inhibition (IC50) result in assay [4] was “Not Active”. The result in the assay on PC-12 [1] and with PC-12 [2] was inactive.
Turning to `NS(=O)(=O)c1ccc(-n2nc(-c3ccc(F)cc3O)nc2-c2ccccc2O)cc1`, the Activity entry in the assay with PC-12 [3] and with PC-12 [5] was “Dose-dependent effect” throughout. Moreover, in assay [4] (read-out: IC50), the IC50 was 46.2 µM. In addition, the result in the assay on PC-12 [1] and in the assay on PC-12 [2] was Active.
Turning to `NS(=O)(=O)c1ccc(-n2nc(-c3ccccc3)nc2-c2ccccc2O)cc1`, in assay [4], the IC50 result was “Not Active”. For the same compound, the outcome with PC-12 [1] and in the assay on PC-12 [2] was inactive.
As for `NS(=O)(=O)c1ccc(-n2nc(-c3ccc(F)cc3O)nc2-c2ccc(F)cc2O)cc1`, the result in the assay on PC-12 [1] and with PC-12 [2] was inactive.
With `NS(=O)(=O)c1ccc(-n2nc(-c3ccccc3O)nc2-c2ccccc2O)cc1`, the Activity entry in the assay with PC-12 [3] and in the assay on PC-12 [5] was “Dose-dependent effect” in each case. The half-maximal inhibitory concentration (IC50) in assay [4] (read-out: IC50) was 42.9 µM. Moreover, the outcome with PC-12 [1] and in the assay on PC-12 [2] was Active.
As to `NS(=O)(=O)c1ccc(-n2nc(-c3ccc(C(F)(F)F)cc3)nc2-c2ccccc2O)cc1`, the concentration for half-maximal inhibition (IC50) entry in assay [4] is listed as “Not Active”. The result in the assay on PC-12 [1] and with PC-12 [2] was inactive.
On to `NS(=O)(=O)c1ccc(-n2nc(-c3ccc([N+](=O)[O-])cc3)nc2-c2ccccc2O)cc1`, for which, in assay [4], the IC50 result was “Not Active”. The outcome in the assay with PC-12 [1] and with PC-12 [2] was inactive.
Turning to `Cc1ccc(-c2nc(-c3ccccc3O)n(-c3ccc(S(N)(=O)=O)cc3)n2)c(O)c1`, the Activity result with PC-12 [3] and in the assay on PC-12 [5] was “Dose-dependent effect” each time. In addition, the IC50 in assay [4] (read-out: IC50) came out at 35.1 µM. Also, the result with PC-12 [1] and in the assay with PC-12 [2] was Active.
Regarding `NS(=O)(=O)c1ccc(-n2nc(-c3ccc(C(F)(F)F)cc3O)nc2-c2ccccc2O)cc1`, the Activity entry with PC-12 [3] and with PC-12 [5] was “Dose-dependent effect” each time. In assay [4] (read-out: IC50), the 50% inhibitory concentration (IC50) is 22.6 µM. In addition, the result in the assay with PC-12 [1] and in the assay on PC-12 [2] was Active.
As to `NS(=O)(=O)c1ccc(-n2nc(-c3ccc([N+](=O)[O-])cc3O)nc2-c2ccccc2O)cc1`, the Activity result in the assay on PC-12 [3] and in the assay on PC-12 [5] was “Dose-dependent effect” each time. In addition, in assay [4] (read-out: IC50), the IC50 turned out to be 27.5 µM. The result in the assay with PC-12 [1] and with PC-12 [2] was Active.
Turning to `NS(=O)(=O)c1ccc(-n2nc(-c3ccc(C(F)(F)F)cc3O)nc2-c2ccc(C(F)(F)F)cc2O)cc1`, the result in the assay on PC-12 [1] and with PC-12 [2] was inactive.

The values above are taken from ChEMBL document CHEMBL4680194, “Synthesis and biological evaluation of 1,2,4-triazole derivatives as potential neuroprotectant against ischemic brain injury” (Eur J Med Chem, 2020).
